From ChEMBL document CHEMBL5241095, “Developments of CRBN-based PROTACs as potential therapeutic agents” (Eur J Med Chem, 2021)
Values belong to the compound of their own block, whether it stands above or below them.

Experiments:
[1] = biological target: T1, Protein cereblon/Tyrosine-protein kinase BTK (Homo sapiens, UniProt Q06187+Q96SW2); assay: Protac activity at CRBN/BTK in human Ramos cells incubated for 24 hrs by immunoblotting method; type: cell-based
Target sequence in this assay (Q06187 whole entry): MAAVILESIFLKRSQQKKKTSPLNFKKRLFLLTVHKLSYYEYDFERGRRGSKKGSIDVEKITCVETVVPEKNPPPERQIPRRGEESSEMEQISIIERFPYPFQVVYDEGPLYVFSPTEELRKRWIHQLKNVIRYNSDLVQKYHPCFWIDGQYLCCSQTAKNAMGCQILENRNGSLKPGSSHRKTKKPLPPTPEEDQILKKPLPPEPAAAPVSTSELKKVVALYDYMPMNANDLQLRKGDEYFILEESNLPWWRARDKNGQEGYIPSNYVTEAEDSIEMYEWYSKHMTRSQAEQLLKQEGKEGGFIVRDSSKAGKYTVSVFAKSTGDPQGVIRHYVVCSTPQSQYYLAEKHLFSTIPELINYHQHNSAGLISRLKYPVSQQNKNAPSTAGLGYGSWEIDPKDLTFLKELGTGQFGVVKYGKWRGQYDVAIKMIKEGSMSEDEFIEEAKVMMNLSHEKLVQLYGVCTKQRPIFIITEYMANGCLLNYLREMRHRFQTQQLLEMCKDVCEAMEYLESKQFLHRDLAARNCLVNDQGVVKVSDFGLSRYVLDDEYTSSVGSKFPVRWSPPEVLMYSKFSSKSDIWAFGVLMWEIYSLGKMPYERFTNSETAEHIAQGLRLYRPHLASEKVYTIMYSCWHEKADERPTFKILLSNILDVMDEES
Target sequence in this assay (Q96SW2 whole entry): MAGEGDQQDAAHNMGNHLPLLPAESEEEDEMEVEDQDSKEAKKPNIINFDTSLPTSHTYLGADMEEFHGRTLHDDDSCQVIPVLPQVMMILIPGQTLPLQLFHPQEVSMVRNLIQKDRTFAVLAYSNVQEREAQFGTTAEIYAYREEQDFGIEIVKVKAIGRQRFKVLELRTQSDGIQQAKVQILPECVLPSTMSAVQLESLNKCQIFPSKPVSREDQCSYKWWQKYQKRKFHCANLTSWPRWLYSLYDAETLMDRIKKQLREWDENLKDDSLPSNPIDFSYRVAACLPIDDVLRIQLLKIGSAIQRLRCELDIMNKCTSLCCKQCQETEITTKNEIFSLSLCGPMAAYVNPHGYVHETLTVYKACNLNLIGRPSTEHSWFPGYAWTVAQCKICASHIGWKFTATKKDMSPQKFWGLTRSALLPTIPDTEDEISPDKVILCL

Protein cereblon/Basigin = Protein cereblon/Basigin (Homo sapiens, UniProt P35613+Q96SW2); assay: Protac activity at CRBN/CD147 in human BV-173 cells by Western blotting analysis; type: cell-based
PC-3 = assay: Antiproliferative activity against human PC-3 cells assessed as inhibition of cell growth; type: functional, cell-based
[2] = biological target: Protein cereblon/Proteasomal ubiquitin receptor ADRM1 (Homo sapiens) (UniProt Q16186+Q96SW2); assay: Protac activity at CRBN/Rpn13 in human MM1.S cells measured after 16 hrs by immunoblotting analysis relative to control; type: cell-based
[3] = biological target: T1, Protein cereblon/Tyrosine-protein kinase BTK; assay: Protac activity at CRBN/BTK in human MINO cells; type: cell-based
Target sequence in this assay (Q06187 whole entry): as the sequence (Q06187 whole entry) above
Target sequence in this assay (Q96SW2 whole entry): as the sequence (Q96SW2 whole entry) above

[4] = biological target: T1, Protein cereblon/Tyrosine-protein kinase BTK; assay: Protac activity at CRBN/BTK in human MINO cells relative to control; type: cell-based
[5] = biological target: T2, Protein cereblon/Bcl-2-like protein 1 (Homo sapiens, UniProt Q07817+Q96SW2); assay: Protac activity at CRBN/BCL-XL in human WI-38 cells relative to control; type: cell-based
[6] = biological target: T2, Protein cereblon/Bcl-2-like protein 1; assay: Protac activity at CRBN/BCL-XL in human WI-38 cells; type: cell-based
Target sequence in this assay (Q07817 whole entry): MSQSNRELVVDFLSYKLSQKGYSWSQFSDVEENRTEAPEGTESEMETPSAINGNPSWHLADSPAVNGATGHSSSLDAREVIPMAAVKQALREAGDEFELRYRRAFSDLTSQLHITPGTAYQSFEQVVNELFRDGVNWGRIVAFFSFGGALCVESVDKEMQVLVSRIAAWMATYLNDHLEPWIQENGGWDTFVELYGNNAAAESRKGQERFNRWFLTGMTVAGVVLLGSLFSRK
Target sequence in this assay (Q96SW2 whole entry): as the sequence (Q96SW2 whole entry) above

[7] = biological target: Protein cereblon/Cyclin-dependent kinase 6 (Homo sapiens) (UniProt Q00534+Q96SW2); assay: Protac activity at CRBN/CDK6 in human MM1.S cells at […] relative to control; type: cell-based
[8] = biological target: Protein cereblon/Cyclin-dependent kinase 4 (Homo sapiens) (UniProt P11802+Q96SW2); assay: Protac activity at CRBN/CDK4 in human MM1.S cells at […] relative to control; type: cell-based
[9] = biological target: T1, Protein cereblon/Tyrosine-protein kinase BTK; assay: Protac activity at CRBN/BTK in human MOLM-14 cells at 0.2 uM relative to control; type: cell-based
Target sequence in this assay (Q06187 2-659 limits assumed): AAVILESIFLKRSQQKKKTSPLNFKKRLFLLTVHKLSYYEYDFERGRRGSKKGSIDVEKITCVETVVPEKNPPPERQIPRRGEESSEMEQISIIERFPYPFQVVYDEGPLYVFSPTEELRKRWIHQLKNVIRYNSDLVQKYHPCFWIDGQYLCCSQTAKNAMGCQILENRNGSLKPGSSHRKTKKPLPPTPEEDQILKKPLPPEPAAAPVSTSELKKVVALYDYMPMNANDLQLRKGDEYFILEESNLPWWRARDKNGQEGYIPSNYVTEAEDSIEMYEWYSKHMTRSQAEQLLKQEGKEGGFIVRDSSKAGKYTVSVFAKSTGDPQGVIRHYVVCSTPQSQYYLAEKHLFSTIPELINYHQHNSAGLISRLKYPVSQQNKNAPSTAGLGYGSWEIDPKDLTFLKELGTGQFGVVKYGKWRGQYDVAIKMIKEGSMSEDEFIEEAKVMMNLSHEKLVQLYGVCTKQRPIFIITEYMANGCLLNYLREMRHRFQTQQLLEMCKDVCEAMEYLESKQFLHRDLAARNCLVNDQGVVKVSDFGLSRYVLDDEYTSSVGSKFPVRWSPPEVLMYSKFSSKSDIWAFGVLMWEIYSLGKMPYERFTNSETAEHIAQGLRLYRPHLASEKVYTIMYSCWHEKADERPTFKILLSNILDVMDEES
Target sequence in this assay (Q96SW2 whole entry partner): as the sequence (Q96SW2 whole entry) above

[10] = biological target: T3, Protein cereblon/GTPase KRas (Homo sapiens, UniProt P01116+Q96SW2, G12C); assay: Protac activity at CRBN/KRAS G12C mutant in human MIA PaCa-2 cells incubated for 16 hrs by immunoblotting analysis; type: cell-based
[11] = biological target: T3, Protein cereblon/GTPase KRas; assay: Protac activity at CRBN/KRAS G12C mutant in human NCI-H358 cells incubated for 16 hrs by immunoblotting analysis; type: cell-based
[12] = biological target: Protein cereblon/Protein deacetylase HDAC6 (Homo sapiens, UniProt Q96SW2+Q9UBN7); assay: Protac activity at CRBN/HDAC6 in human MM1.S cells incubated for 24 hrs by Immunoblotting analysis; type: cell-based
[13] = biological target: von Hippel-Lindau disease tumor suppressor/Tyrosine-protein kinase BTK (Homo sapiens, UniProt Q06187+P40337); assay: Protac activity at VHL/BTK in human NAMALVA cells incubated for 24 hrs by immunoblotting method; type: cell-based
[14] = biological target: von Hippel-Lindau disease tumor suppressor/Tyrosine-protein kinase BTK (Homo sapiens, UniProt Q06187+P40337, C481S); assay: Protac activity at VHL/BTK C481S mutant in human NAMALVA cells incubated for 24 hrs by immunoblotting method; type: cell-based
[15] = biological target: RAC-gamma serine/threonine-protein kinase (Homo sapiens, UniProt Q9Y243); assay: Inhibition of Akt3 (unknown origin)
[16] = biological target: RAC-alpha serine/threonine-protein kinase (Homo sapiens, UniProt P31749); assay: Inhibition of Akt1 (unknown origin)
[17] = biological target: Protein cereblon/Protein deacetylase HDAC6 (Homo sapiens, UniProt Q9UBN7+Q96SW2); assay: Protac activity at CRBN/HDAC6 in human MM1.S cells incubated for 5 hrs by ELISA analysis; type: cell-based
[18] = Antiproliferative activity against human MCL cells assessed as cell growth inhibition; type: functional, cell-based

T3 sequence (P01116 whole entry G12C, stated change not applied): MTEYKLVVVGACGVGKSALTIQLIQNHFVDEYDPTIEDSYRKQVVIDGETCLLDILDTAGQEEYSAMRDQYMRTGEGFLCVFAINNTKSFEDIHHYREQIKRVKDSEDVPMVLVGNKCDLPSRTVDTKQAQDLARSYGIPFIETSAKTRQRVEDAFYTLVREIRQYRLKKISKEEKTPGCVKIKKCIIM
T3 sequence (Q96SW2 whole entry, stated change not applied): as the sequence (Q96SW2 whole entry) above
Chain of Protein cereblon/Proteasomal ubiquitin receptor ADRM1 (Homo sapiens) (Q16186 whole entry, looked up): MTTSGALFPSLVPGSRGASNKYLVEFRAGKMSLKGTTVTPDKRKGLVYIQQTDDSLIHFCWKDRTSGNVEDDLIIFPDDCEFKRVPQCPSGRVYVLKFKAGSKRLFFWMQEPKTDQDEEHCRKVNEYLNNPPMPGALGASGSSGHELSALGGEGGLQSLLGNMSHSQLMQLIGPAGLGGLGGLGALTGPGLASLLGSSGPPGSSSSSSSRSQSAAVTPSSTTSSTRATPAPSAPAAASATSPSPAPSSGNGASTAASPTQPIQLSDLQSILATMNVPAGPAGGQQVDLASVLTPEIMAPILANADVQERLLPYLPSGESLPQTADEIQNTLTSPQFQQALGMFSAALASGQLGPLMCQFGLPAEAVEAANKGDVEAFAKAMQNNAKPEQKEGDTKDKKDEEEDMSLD
Chain of Protein cereblon/Proteasomal ubiquitin receptor ADRM1 (Homo sapiens) (Q96SW2 whole entry, looked up): as the sequence (Q96SW2 whole entry) above
Chain of RAC-alpha serine/threonine-protein kinase (P31749 whole entry): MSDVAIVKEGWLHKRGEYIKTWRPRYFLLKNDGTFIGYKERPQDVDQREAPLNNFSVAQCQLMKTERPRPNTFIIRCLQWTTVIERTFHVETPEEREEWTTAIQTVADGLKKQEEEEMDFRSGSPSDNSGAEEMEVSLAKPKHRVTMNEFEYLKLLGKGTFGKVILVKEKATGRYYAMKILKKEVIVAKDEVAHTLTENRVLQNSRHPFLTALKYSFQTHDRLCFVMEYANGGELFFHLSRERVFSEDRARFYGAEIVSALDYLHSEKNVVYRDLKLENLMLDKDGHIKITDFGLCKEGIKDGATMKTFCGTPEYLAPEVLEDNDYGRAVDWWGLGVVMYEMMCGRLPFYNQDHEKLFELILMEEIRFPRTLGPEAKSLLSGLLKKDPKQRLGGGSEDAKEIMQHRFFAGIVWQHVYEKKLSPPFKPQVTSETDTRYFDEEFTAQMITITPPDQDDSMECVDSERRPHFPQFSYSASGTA

DC50 [1]: 5.9 nM
SMILES: NC(=O)c1c(-c2ccc(Oc3ccc(F)cc3F)cc2)nn([C@@H]2CCCN(C(=O)COCCCCCCNc3cccc4c3C(=O)N(C3CCC(=O)NC3=O)C4=O)C2)c1N (stereo not given in full)

DC50 (Protein cereblon/Basigin): 4.4 nM
SMILES: CC(=O)c1c(C)c2cnc(Nc3ccc(N4CCN(C(=O)CNCCCCNC(=O)COc5cccc6c5C(=O)N(C5CCC(=O)NC5=O)C6=O)CC4)cn3)nc2n(C2CCCC2)c1=O (stereo not given)

IC50 (PC-3): 6120 nM
SMILES: COc1cc2nc(N3CCN(C(=O)c4cn(CCCCOCC(=O)Nc5cccc6c5C(=O)N(C5CCC(=O)NC5=O)C6=O)nn4)CC3)nc(N)c2cc1OC (stereo not given)

Activity [2]: 95%
SMILES: O=C1CCC(N2C(=O)c3cccc(NCCOCCOCCOCCC(=O)N[C@@H](Cc4ccccc4)C(=O)C4C/C(=C\c5ccc(Cl)c(Cl)c5)C(=O)/C(=C/c5ccc(Cl)c(Cl)c5)C4)c3C2=O)C(=O)N1 (stereo not given in full)

DC50 [3]: < 10 nM
Emax [4]: 90%
SMILES: CC(C)(/C=C(\C#N)C(=O)N1CCC[C@@H](n2nc(-c3ccc(Oc4ccccc4)cc3)c3c(N)ncnc32)C1)CCCCCCCCOc1cccc2c1C(=O)N(C1CCC(=O)NC1=O)C2=O (stereo not given in full)

Emax [5]: 96.2%
DC50 [6]: 46 nM
SMILES: CC1(C)CCC(c2ccc(Cl)cc2)=C(CN2CCN(c3ccc(C(=O)NS(=O)(=O)c4ccc(N[C@H](CCN5CCN(C(=O)CCCn6cc(COCCCNc7cccc8c7C(=O)N(C7CCC(=O)NC7=O)C8=O)nn6)CC5)CSc5ccccc5)c(S(=O)(=O)C(F)(F)F)c4)cc3)CC2)C1 (stereo not given in full)

Activity [7]: 89%
Activity [8]: 75%
SMILES: CC(=O)c1c(C)c2cnc(Nc3ccc(N4CCN(C(=O)CCCCCNc5cccc6c5C(=O)N(C5CCC(=O)NC5=O)C6=O)CC4)cn3)nc2n(C2CCCC2)c1=O (stereo not given)

Activity [9]: 81%
SMILES: CN(CCCNC(=O)CNc1cccc2c1C(=O)N(C1CCC(=O)NC1=O)C2=O)C(C)(C)/C=C(\C#N)C(=O)N1CCC[C@@H](n2nc(-c3ccc(Oc4ccccc4)cc3)c3c(N)ncnc32)C1 (stereo not given in full)

SMILES: C=CC(=O)N1CCN(c2nc(NCCCN3CCN(CCCNc4cccc5c4C(=O)N(C4CCC(=O)NC4=O)C5=O)CC3)nc3c(F)c(-c4cc(O)cc5ccccc45)c(Cl)cc23)CC1 (stereo not given)
DC50 [10]: 1200 nM
DC50 [11]: 6000 nM

IC50 [12]: 3.2 nM
SMILES: CCCCN(Cc1ccc(C(=O)NO)cc1)C(=O)Nc1ccc(NC(=O)CCCc2cn(CCOCCNc3cccc4c3C(=O)N(C3CCC(=O)NC3=O)C4=O)nn2)cc1 (stereo not given)

SMILES: Nc1ncnc2c1c(-c1ccc(Oc3ccccc3)cc1)nn2[C@@H]1CCCN(CCOCCOCC(=O)Nc2ccc3c(c2)C(=O)N(C2CCC(=O)NC2=O)C3=O)C1 (stereo not given in full)
DC50 [13]: 14.6 nM
DC50 [14]: 14.9 nM

IC50 [15]: 3.5 nM
IC50 [16]: 2 nM
SMILES: C[C@@H]1C[C@@H](O)c2ncnc(N3CCN(C(=O)[C@H](CNCCCCCCCCCCCc4cccc5c4CN(C4CCC(=O)NC4=O)C5=O)c4ccc(Cl)cc4)CC3)c21 (stereo not given in full)

DC50 [17]: 1.5 nM
SMILES: CCCCN(Cc1ccc(C(=O)NO)cc1)C(=O)Nc1ccc(OCn2cc(CCCCCCCNCc3ccc(-c4cccc5c4CN(C4CCC(=O)NC4=O)C5=O)cc3)nn2)cc1 (stereo not given)

SMILES: Cc1c(NC(=O)c2ccc(C(C)(C)C)cc2)cccc1-c1cn(C)c(=O)c(Nc2ccc(C(=O)N3CCN(CCCCCCNC(=O)CNc4cccc5c4C(=O)N(C4CCC(=O)NC4=O)C5=O)CC3)cc2)n1 (stereo not given)
IC50 [18]: 5.1 nM
